Measured values as given in ChEMBL document CHEMBL1201862, “PubChem BioAssay data set” (2004).
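Each compound was tested at five concentrations against cells in 96-well plates for 48 hours. Abbreviation: GI50, concentration required for 50% inhibition of growth.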 Active and inactive are the calls of the source. No stated cut-off is given here; in the data, active = GI50 up to about 1.1 µM and inactive = higher.

Experiments:
Assay in all cases: DTP human tumour cell line panel, 48 h
SF-295 = system: SF-295
U-251 = system: U-251
DLD-1 = system: DLD-1
A549 = system: A549
UACC-62 = system: UACC-62
M19-MEL = system: M19-MEL
SK-OV-3 = system: SK-OV-3
ACHN = system: ACHN
Malme-3M = system: Malme-3M
SF-539 = system: SF-539
SR = system: SR
RXF 631 = system: RXF 631
A498 = system: A498
NCI-H522 = system: NCI-H522
HOP-92 = system: HOP-92
HL-60 = system: HL-60
NCI-H460 = system: NCI-H460
KM-20L2 = system: KM-20L2
OVCAR-5 = system: OVCAR-5
EKVX = system: EKVX
DMS-273 = system: DMS-273
NCI-H226 = system: NCI-H226
NCI-H23 = system: NCI-H23
SW-620 = system: SW-620
OVCAR-4 = system: OVCAR-4
COLO 205 = system: COLO 205
HOP-62 = system: HOP-62
XF498 = system: XF498
K562 = system: K562
KM12 = system: KM12
OVCAR-8 = system: OVCAR-8
CCRF-CEM = system: CCRF-CEM
SNB-75 = system: SNB-75
OVCAR-3 = system: OVCAR-3
SNB-78 = system: SNB-78
IGROV-1 = system: IGROV-1
HT-29 = system: HT-29
UACC-257 = system: UACC-257
CAKI-1 = system: CAKI-1
HOP-18 = system: HOP-18
HCT-116 = system: HCT-116
TK-10 = system: TK-10
LOX IMVI = system: LOX IMVI
SK-MEL-28 = system: SK-MEL-28
SNB-19 = system: SNB-19
RXF 393 = system: RXF 393
UO-31 = system: UO-31
SF-268 = system: SF-268
HCC 2998 = system: HCC 2998
RPMI-8226 = system: RPMI-8226
HCT-15 = system: HCT-15
LXFL 529 = system: LXFL 529
SK-MEL-5 = system: SK-MEL-5
MOLT-4 = system: MOLT-4
SN12C = system: SN12C
SK-MEL-2 = system: SK-MEL-2
DMS-114 = system: DMS-114
786-0 = system: 786-0
M14 = system: M14

With `COc1cc(CNc2nc3c(N)cc(C(F)(F)F)cc3nc2-c2ccccc2)cc(OC)c1OC` the GI50 (SF-295) was 37.7 µM (inactive), the GI50 (U-251) was 63.8 µM (inactive) and the GI50 (DLD-1) was 31.8 µM (inactive). The GI50 (A549) was 19 µM (inactive), the GI50 (UACC-62) was 35.2 µM (inactive) and the GI50 (M19-MEL) was 35.4 µM (inactive). For the same compound, the GI50 (SK-OV-3) was > 10 µM (inactive), the GI50 (ACHN) was 23.7 µM (inactive) and the GI50 (Malme-3M) was 40 µM (inactive). The GI50 (SF-539) was > 10 µM (inactive), the GI50 (SR) was > 10 µM (inactive) and the GI50 (RXF 631) was 44.3 µM (inactive). The GI50 (A498) was 61.9 µM (inactive), the GI50 (NCI-H522) was 11.6 µM (inactive) and the GI50 (HOP-92) was 22.8 µM (inactive). For the same compound, the GI50 (HL-60) was > 10 µM (inactive), the GI50 (NCI-H460) was 25.9 µM (inactive) and the GI50 (KM-20L2) was 29.6 µM (inactive). The GI50 (OVCAR-5) was 37.4 µM (inactive), the GI50 (EKVX) was 3.41 µM (inactive) and the GI50 (DMS-273) was 37.8 µM (inactive). The GI50 (NCI-H226) was 50.2 µM (inactive), the GI50 (NCI-H23) was 19 µM (inactive) and the GI50 (SW-620) was 85.1 µM (inactive). For the same compound, the GI50 (OVCAR-4) was 8.95 µM (inactive), the GI50 (COLO 205) was 38.5 µM (inactive) and the GI50 (HOP-62) was 39.5 µM (inactive). For the same compound, the GI50 (XF498) was 13.7 µM (inactive), the GI50 (K562) was 12.1 µM (inactive) and the GI50 (KM12) was 18 µM (inactive). The GI50 (OVCAR-8) was 71.1 µM (inactive), the GI50 (CCRF-CEM) was > 10 µM (inactive) and the GI50 (SNB-75) was 89.3 µM (inactive). For the same compound, the GI50 (OVCAR-3) was 36.1 µM (inactive), the GI50 (SNB-78) was > 10 µM (inactive) and the GI50 (IGROV-1) was > 10 µM (inactive). For the same compound, the GI50 (HT-29) was 13.4 µM (inactive), the GI50 (UACC-257) was 63 µM (inactive) and the GI50 (CAKI-1) was > 10 µM (inactive). For the same compound, the GI50 (HOP-18) was > 10 µM (inactive), the GI50 (HCT-116) was 19.7 µM (inactive) and the GI50 (TK-10) was > 10 µM (inactive). The GI50 (LOX IMVI) was 18.5 µM (inactive), the GI50 (SK-MEL-28) was 53.5 µM (inactive) and the GI50 (SNB-19) was > 10 µM (inactive). For the same compound, the GI50 (RXF 393) was 8.47 µM (inactive), the GI50 (UO-31) was 16.8 µM (inactive) and the GI50 (SF-268) was 50.8 µM (inactive). For the same compound, the GI50 (HCC 2998) was 40.6 µM (inactive), the GI50 (RPMI-8226) was 47.3 µM (inactive) and the GI50 (HCT-15) was 14.9 µM. The GI50 (LXFL 529) was 25.6 µM (inactive), the GI50 (SK-MEL-5) was 21.3 µM (inactive) and the GI50 (MOLT-4) was 8.83 µM (inactive). For the same compound, the GI50 (SN12C) was 70.3 µM (inactive), the GI50 (SK-MEL-2) was 52.1 µM (inactive) and the GI50 (DMS-114) was 12.3 µM (inactive). The GI50 (786-0) was 88.3 µM (inactive) and the GI50 (M14) was 47.1 µM (inactive).
For `O=C1NC(=O)C(C(=O)C(=O)Nc2ccc(Br)cc2)C(=O)N1`, the GI50 (SF-295) was > 100 µM (inactive), the GI50 (U-251) was > 100 µM (inactive) and the GI50 (DLD-1) was > 100 µM (inactive). The GI50 (A549) was > 100 µM (inactive), the GI50 (UACC-62) was > 100 µM (inactive) and the GI50 (M19-MEL) was > 100 µM (inactive). For the same compound, the GI50 (SK-OV-3) was > 100 µM (inactive), the GI50 (ACHN) was > 100 µM (inactive) and the GI50 (Malme-3M) was > 100 µM (inactive). The GI50 (SF-539) was > 100 µM (inactive), the GI50 (SR) was > 100 µM (inactive) and the GI50 (RXF 631) was > 100 µM (inactive). The GI50 (A498) was > 100 µM (inactive), the GI50 (NCI-H522) was > 100 µM (inactive) and the GI50 (HOP-92) was > 100 µM (inactive). The GI50 (HL-60) was > 100 µM (inactive), the GI50 (KM-20L2) was > 100 µM (inactive) and the GI50 (EKVX) was > 100 µM (inactive). The GI50 (DMS-273) was > 100 µM (inactive), the GI50 (NCI-H226) was > 100 µM (inactive) and the GI50 (NCI-H23) was > 100 µM (inactive). For the same compound, the GI50 (SW-620) was > 100 µM (inactive), the GI50 (OVCAR-4) was > 100 µM (inactive) and the GI50 (COLO 205) was > 100 µM (inactive). The GI50 (XF498) was > 100 µM (inactive), the GI50 (K562) was > 100 µM (inactive) and the GI50 (OVCAR-8) was > 100 µM (inactive). The GI50 (CCRF-CEM) was > 100 µM (inactive), the GI50 (SNB-75) was 12.1 µM (inactive) and the GI50 (OVCAR-3) was > 100 µM (inactive). For the same compound, the GI50 (SNB-78) was > 100 µM (inactive), the GI50 (IGROV-1) was > 100 µM (inactive) and the GI50 (HT-29) was > 100 µM (inactive). For the same compound, the GI50 (UACC-257) was > 100 µM (inactive), the GI50 (HOP-18) was > 100 µM (inactive) and the GI50 (HCT-116) was > 100 µM (inactive). For the same compound, the GI50 (LOX IMVI) was > 100 µM (inactive), the GI50 (SK-MEL-28) was > 100 µM (inactive) and the GI50 (SNB-19) was > 100 µM (inactive). For the same compound, the GI50 (RXF 393) was 5.04 µM (inactive), the GI50 (UO-31) was > 100 µM (inactive) and the GI50 (SF-268) was > 100 µM (inactive). The GI50 (HCC 2998) was > 100 µM (inactive), the GI50 (RPMI-8226) was > 100 µM (inactive) and the GI50 (HCT-15) was greater than 100 µM. For the same compound, the GI50 (LXFL 529) was > 100 µM (inactive), the GI50 (SK-MEL-5) was > 100 µM (inactive) and the GI50 (MOLT-4) was > 100 µM (inactive). For the same compound, the GI50 (SN12C) was > 100 µM (inactive), the GI50 (DMS-114) was > 100 µM (inactive) and the GI50 (786-0) was > 100 µM (inactive). The GI50 (M14) was > 100 µM (inactive).
